Experiments:
Details in all cases: incubation time: 72 h
BT-474 [1] = experiment: normalised response (% of control), CellTiter-Glo; higher = more viable cells (100 = DMSO, 0 = benzethonium chloride kill control)
Method in brief: (§1)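 For each plate, 0.1 % DMSO was set to 100 and a positive kill control to 0. Breast cancer cell lines (20 µl suspension) were seeded into 384-well plates already holding compound at 5 concentrations in 10-fold steps over a 10,000-fold range chosen per compound, and incubated for 72 h. CellTox Green fluorescence at 485/520 nm was read before CellTiter-Glo luminescence, which followed 10 min at room temperature. Each value is the normalised signal at one concentration.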

MFM-223 [2] = experiment: as above
Method in brief: as §1

BT-549 [3] = experiment: as above
Method in brief: as §1

MDA-MB-468 [4] = experiment: as above
Method in brief: as §1

MCF-10A [5] = experiment: as above
Method in brief: as §1

HCC1143 = experiment: as above
Method in brief: as §1

HCC1937 [6] = experiment: as above
Method in brief: as §1

CAL-85-1 [7] = experiment: as above
Method in brief: as §1

HCC1599 [8] = experiment: as above
Method in brief: as §1

Hs578T [9] = experiment: as above
Method in brief: as §1

CAL-148 [10] = experiment: as above
Method in brief: as §1

CAL-51 [11] = experiment: as above
Method in brief: as §1

MDA-MB-436 [12] = experiment: as above
Method in brief: as §1

HDQ-P1 [13] = experiment: as above
Method in brief: as §1

BT-474 [14] = experiment: normalised response (% of control), CellTox Green; higher = less cell death (100 = DMSO, 0 = benzethonium chloride kill control)
Method in brief: as §1

MFM-223 [15] = experiment: as above
Method in brief: as §1

MDA-MB-231 = experiment: as above
Method in brief: as §1

BT-549 [16] = experiment: as above
Method in brief: as §1

MDA-MB-468 [17] = experiment: as above
Method in brief: as §1

MCF-10A [18] = experiment: as above
Method in brief: as §1

HCC1937 [19] = experiment: as above
Method in brief: as §1

CAL-85-1 [20] = experiment: as above
Method in brief: as §1

HCC1599 [21] = experiment: as above
Method in brief: as §1

Hs578T [22] = experiment: as above
Method in brief: as §1

CAL-148 [23] = experiment: as above
Method in brief: as §1

MDA-MB-453 = experiment: as above
Method in brief: as §1

CAL-120 = experiment: as above
Method in brief: as §1

DU-4475 = experiment: as above
Method in brief: as §1

CAL-51 [24] = experiment: as above
Method in brief: as §1

MDA-MB-436 [25] = experiment: as above
Method in brief: as §1

HDQ-P1 [26] = experiment: as above
Method in brief: as §1

| Compound | normalised response (BT-474 [1]) | normalised response (MFM-223 [2]) | normalised response (BT-549 [3]) | normalised response (MDA-MB-468 [4]) | normalised response (MCF-10A [5]) | normalised response (HCC1143) | normalised response (HCC1937 [6]) | normalised response (CAL-85-1 [7]) | normalised response (HCC1599 [8]) | normalised response (Hs578T [9]) | normalised response (CAL-148 [10]) | normalised response (CAL-51 [11]) | normalised response (MDA-MB-436 [12]) | normalised response (HDQ-P1 [13]) | normalised response (BT-474 [14]) | normalised response (MFM-223 [15]) | normalised response (MDA-MB-231) | normalised response (BT-549 [16]) | normalised response (MDA-MB-468 [17]) | normalised response (MCF-10A [18]) | normalised response (HCC1937 [19]) | normalised response (CAL-85-1 [20]) | normalised response (HCC1599 [21]) | normalised response (Hs578T [22]) | normalised response (CAL-148 [23]) | normalised response (MDA-MB-453) | normalised response (CAL-120) | normalised response (DU-4475) | normalised response (CAL-51 [24]) | normalised response (MDA-MB-436 [25]) | normalised response (HDQ-P1 [26]) |
| --- | --- | --- | --- | --- | --- | --- | --- | --- | --- | --- | --- | --- | --- | --- | --- | --- | --- | --- | --- | --- | --- | --- | --- | --- | --- | --- | --- | --- | --- | --- | --- |
| CN(N=O)C(=O)N[C@@H](C=O)[C@@H](O)[C@H](O)[C@H](O)CO [Streptozocin] (10000 nM) | 100% | 106% | 97.7% | 104% | 110% | 106% | 105% | 98.5% | 92.5% | 109% | 107% | 91.8% | 97.2% | 102% | 105% | 88.1% | 106% | 96.1% | 64.1% | 116% | 71.6% | 80.7% | 98.6% | 136% | 107% | 84.9% | 110% | 98.1% | 102% | 68.7% | 110% |
| CCC1=C[C@@H]2CN(C1)Cc1c([nH]c3ccccc13)[C@@](C(=O)OC)(c1cc3c(cc1OC)N(C)[C@H]1[C@@](O)(C(=O)OC)[C@H](OC(C)=O)[C@]4(CC)C=CCN5CC[C@]31[C@@H]54)C2 [Vinorelbine] (10000 nM) | 48.2% | 39.6% | 36.1% | 18.1% | 78.3% | 55.3% | 69.8% | 48.9% | 4.45% | 15.9% | 49.6% | 27.5% | 24.5% | 70.6% | 59.1% | 42.7% | -5.22% | 43.6% | 5.11% | 41.4% | 83.1% | 71% | 70.8% | -16.6% | 80.7% | 90.3% | 75.5% | 90.9% | 7% | 70.8% | 97.8% |
| COc1cc([C@@H]2c3cc4c(cc3[C@@H](O[C@@H]3O[C@@H]5CO[C@@H](C)O[C@H]5[C@H](O)[C@H]3O)[C@H]3COC(=O)[C@H]23)OCO4)cc(OC)c1O [Etoposide] (10000 nM) | 44.1% | 90.8% | 35.9% | 38.5% | 87.1% | 38.8% | 67.5% | 49.8% | 11.8% | 67.3% | 39.9% | 23.9% | 36.6% | 82.3% | 97.3% | 103% | 61% | 85.4% | -48% | 108% | 106% | 34.3% | 91% | 88.2% | 49.6% | 109% | 75.7% | 78.4% | 36.8% | 80.9% | 109% |

Reference: the supplement of paper PMC4862054
